Reference: PubChem BioAssay AID256 (DTP/NCI, 2004)
Values joined by “and” are separate entries in the source; they are usually repeats but may differ in a detail not shown here. Identical values can stand only once. Toxic doses and inconclusive results are not listed.

System: CD2F1 mice, L1210 leukemia ip, survival T/C
Test: NCI In Vivo Anticancer Drug Screen. Data for tumor model L1210 Leukemia (intraperitoneal) in CD2F1 (CDF1) mice
Conditions: higher = longer survival
How it was run: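 Each value reflects a quotient of treated over vehicle control outcomes in mice with a transplanted tumor.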

[1] = endpoint: mean survival time, dose: 100.0 mg/kg/injection, schedule: Q04DX003 (ip), vehicle: saline
[2] = endpoint: mean survival time, dose: 100.0 mg/kg/injection, schedule: Q01DX009 (ip), vehicle: saline with Tween-80
[3] = endpoint: mean survival time, dose: 100.0 mg/kg/injection, schedule: Q04DX003 (ip), vehicle: saline with Tween-80
[4] = endpoint: mean survival time, dose: 200.0 mg/kg/injection, schedule: Q01DX009 (ip), vehicle: saline with Tween-80
[5] = endpoint: mean survival time, dose: 200.0 mg/kg/injection, schedule: Q04DX003 (ip), vehicle: saline with Tween-80
[6] = endpoint: mean survival time, dose: 400.0 mg/kg/injection, schedule: Q01DX009 (ip), vehicle: saline with Tween-80
[7] = endpoint: mean survival time, dose: 400.0 mg/kg/injection, schedule: Q04DX003 (ip), vehicle: saline with Tween-80
[8] = endpoint: median survival time, dose: 25.0 mg/kg/injection, schedule: Q01DX009 (ip), vehicle: saline with Tween-80
[9] = endpoint: median survival time, dose: 50.0 mg/kg/injection, schedule: Q01DX009 (ip), vehicle: saline with Tween-80
[10] = endpoint: median survival time, dose: 100.0 mg/kg/injection, schedule: Q01DX009 (ip), vehicle: saline with Tween-80
[11] = endpoint: median survival time, dose: 200.0 mg/kg/injection, schedule: Q01DX009 (ip), vehicle: saline with Tween-80

In the case of `Cc1ccc(S(=O)(=O)Oc2cc([N+](=O)[O-])ccc2N)cc1`, the T/C [1] is reported as 95 % of control, the T/C (endpoint: mean survival time, dose: 200.0 mg/kg/injection, schedule: Q04DX003 (ip), vehicle: saline) is reported as 100 % of control and the T/C (endpoint: mean survival time, dose: 400.0 mg/kg/injection, schedule: Q04DX003 (ip), vehicle: saline) is reported as 103 % of control.
In the case of `O=C(NCCNC(=O)Nc1ccc(Cl)cc1)Nc1ccc(Cl)cc1`, the T/C [2] is reported as 105 % of control, the T/C [3] is reported as 88 % of control and the T/C [4] is reported as 107 % of control. The T/C [5] was 90 % of control, the T/C [6] was 96 % of control and the T/C [7] was 88 % of control.
In the case of `CCOC(=O)/C=C(C)/C=C/C=C(/C)CCC=C(C)C`, the T/C (endpoint: mean survival time, dose: 100.0 mg/kg/injection, schedule: Q04DX002 (ip), vehicle: saline with Tween-80) is reported as 100 % of control, the T/C (endpoint: mean survival time, dose: 200.0 mg/kg/injection, schedule: Q04DX002 (ip), vehicle: saline with Tween-80) is reported as 100 % of control and the T/C (endpoint: mean survival time, dose: 400.0 mg/kg/injection, schedule: Q04DX002 (ip), vehicle: saline with Tween-80) is reported as 92 % of control.
For `O=C(Oc1ccccc1/C=C/[n+]1ccccc1)c1ccccc1`, the T/C (endpoint: mean survival time, dose: 50.0 mg/kg/injection, schedule: Q01DX009 (ip), vehicle: saline with Tween-80) was 92 % of control, the T/C [2] was 100 % of control and the T/C [4] was 96 % of control.
For `O=C(O)CCS(=O)(=O)CCC(=O)O`, the T/C [3] was 92 % of control, the T/C [5] was 93 % of control and the T/C [7] was 90 % of control.
For `O=[N+]([O-])c1ccc2nocc2c1`, the T/C (endpoint: mean survival time, dose: 25.0 mg/kg/injection, schedule: Q04DX003 (ip), vehicle: Klucel (hydroxypropylcellulose) (HPC)) was 105 % of control, the T/C (endpoint: mean survival time, dose: 50.0 mg/kg/injection, schedule: Q04DX003 (ip), vehicle: Klucel (hydroxypropylcellulose) (HPC)) was 97 % of control and the T/C (endpoint: mean survival time, dose: 100.0 mg/kg/injection, schedule: Q04DX003 (ip), vehicle: Klucel (hydroxypropylcellulose) (HPC)) was 101 % of control.
`C#CC(C)(O)CCCCCC` (configuration not stated) was tested, and the T/C [2] was 113 % of control and the T/C [4] was 100 % of control.
With `COc1ccccc1NC(=O)OCC#CCOC(=O)Nc1ccccc1OC` the T/C (endpoint: mean survival time, dose: 100.0 mg/kg/injection, schedule: Q01DX009 (ip), vehicle: Klucel (hydroxypropylcellulose) (HPC)) was 91 % of control, the T/C (endpoint: mean survival time, dose: 200.0 mg/kg/injection, schedule: Q01DX009 (ip), vehicle: Klucel (hydroxypropylcellulose) (HPC)) was 91 % of control and the T/C (endpoint: mean survival time, dose: 400.0 mg/kg/injection, schedule: Q01DX009 (ip), vehicle: Klucel (hydroxypropylcellulose) (HPC)) was 92 % of control.
For `CN1C(=O)C=C(C=Nc2ccc(-c3ccccc3)cc2)C2CCCCC21` (configuration not stated), the T/C [3] was 106 % of control, the T/C [5] was 98 % of control and the T/C [7] was 97 % of control.
`CC1=CC=CC2=NC(=O)CCN12` was tested, and the T/C [2] was 104 % of control, the T/C [3] was 105 % of control and the T/C [4] was 106 % of control. For the same compound, the T/C [5] was 102 % of control, the T/C [6] was 103 % of control and the T/C [7] was 103 % of control.
`OCC(F)(F)F` was tested, and the T/C (endpoint: mean survival time, dose: 100.0 mg/kg/injection, schedule: Q01DX009 (ip), vehicle: saline) was 123 % of control, the T/C [3] was 108 % of control and the T/C [5] was 110 % of control. The T/C [7] was 115 % of control.
For `Cc1nc2c(N)nn(C)c2nc1C`, the T/C [3] was 95 % of control, the T/C [5] was 101 % of control and the T/C [7] was 101 % of control.
In the case of `O=C(Nc1ccc(Cl)c(Cl)c1)Nc1ccc(Oc2ccc(Cl)cc2Cl)cc1S(=O)(=O)O`, the T/C (endpoint: mean survival time, dose: 100.0 mg/kg/injection, schedule: Q01DX001 (ip), vehicle: acetone) is reported as 102 % of control, the T/C (endpoint: mean survival time, dose: 200.0 mg/kg/injection, schedule: Q01DX001 (ip), vehicle: acetone) is reported as 91 % of control and the T/C (endpoint: mean survival time, dose: 400.0 mg/kg/injection, schedule: Q01DX001 (ip), vehicle: acetone) is reported as 94 % of control.
With `CCCC1CCC(=C2C(=O)CCC2=O)O1` (configuration not stated) the T/C [8] was 98 % of control, the T/C [9] was 100 % of control and the T/C [10] was 100 % of control. The T/C [11] was 102 % of control.
`OCc1cn2c(c1CO)CCC2` was tested, and the T/C (endpoint: mean survival time, dose: 12.5 mg/kg/injection, schedule: Q01DX009 (ip), vehicle: water) was 105 % of control, the T/C (endpoint: mean survival time, dose: 22.0 mg/kg/injection, schedule: Q01DX009 (ip), vehicle: other) was 108 % of control and the T/C (endpoint: mean survival time, dose: 25.0 mg/kg/injection, schedule: Q01DX009 (ip), vehicle: water) was 113 % of control. For the same compound, the T/C (endpoint: mean survival time, dose: 33.0 mg/kg/injection, schedule: Q01DX009 (ip), vehicle: other) was 113 % of control, the T/C (endpoint: mean survival time, dose: 50.0 mg/kg/injection, schedule: Q01DX009 (ip), vehicle: other) was 123 % of control and the T/C (endpoint: mean survival time, dose: 75.0 mg/kg/injection, schedule: Q01DX009 (ip), vehicle: other) was 105 % of control.
In the case of `CCCCCCNc1nc(NCCCCCC)c2[nH]c(NCCCCCC)nc2n1`, the T/C [8] is reported as 107 % of control, the T/C [9] is reported as 107 % of control and the T/C [10] is reported as 106 % of control. For the same compound, the T/C [11] was 105 % of control.
In the case of `CN(CC(=O)C(C)(C)C)C1CCCCC1`, the T/C [1] is reported as 91 % of control.
`COc1cc(C=C2C(=O)C=CC2=O)ccc1O` was tested, and the T/C (endpoint: mean survival time, dose: 3.13 mg/kg/injection, schedule: Q04DX002 (ip), vehicle: saline with Tween-80) was 108 % of control, the T/C (endpoint: mean survival time, dose: 6.25 mg/kg/injection, schedule: Q04DX002 (ip), vehicle: saline with Tween-80) was 100 % of control and the T/C (endpoint: mean survival time, dose: 12.5 mg/kg/injection, schedule: Q04DX002 (ip), vehicle: saline with Tween-80) was 106 % of control.
`COc1ccc2c(c1)CCC1C2CCC2(C)C(=O)OC(=O)C12` (configuration not stated) was tested, and the T/C (endpoint: mean survival time, dose: 100.0 mg/kg/injection, schedule: Q04DX003 (sc), vehicle: steriod suspending solution) was 101 % of control, the T/C (endpoint: mean survival time, dose: 200.0 mg/kg/injection, schedule: Q04DX003 (sc), vehicle: steriod suspending solution) was 95 % of control and the T/C (endpoint: mean survival time, dose: 400.0 mg/kg/injection, schedule: Q04DX003 (sc), vehicle: steriod suspending solution) was 98 % of control.
In the case of `Nc1ncnc2c1c1c(=O)[nH]c(=O)[nH]c1n2C1OC(CO)C(O)C1O` (configuration not stated), the T/C (endpoint: mean survival time, dose: 12.5 mg/kg/injection, schedule: Q01DX005 (ip), vehicle: distilled water + Tween-80) is reported as 111 % of control, the T/C (endpoint: mean survival time, dose: 25.0 mg/kg/injection, schedule: Q01DX005 (ip), vehicle: distilled water + Tween-80) is reported as 116 % of control and the T/C (endpoint: mean survival time, dose: 50.0 mg/kg/injection, schedule: Q01DX005 (ip), vehicle: distilled water + Tween-80) is reported as 119 % of control. For the same compound, the T/C (endpoint: mean survival time, dose: 100.0 mg/kg/injection, schedule: Q01DX005 (ip), vehicle: distilled water + Tween-80) was 158 % of control, the T/C (endpoint: mean survival time, dose: 200.0 mg/kg/injection, schedule: Q01DX005 (ip), vehicle: distilled water + Tween-80) was 172 % of control and the T/C (endpoint: mean survival time, dose: 400.0 mg/kg/injection, schedule: Q01DX005 (ip), vehicle: distilled water + Tween-80) was 208 % of control. The T/C (endpoint: median survival time, dose: 25.0 mg/kg/injection, schedule: Q01DX009 (ip), vehicle: distilled water + Tween-80) was 114 % of control, the T/C (endpoint: median survival time, dose: 50.0 mg/kg/injection, schedule: Q01DX009 (ip), vehicle: distilled water + Tween-80) was 115 % of control and 109 % of control and the T/C (endpoint: median survival time, dose: 100.0 mg/kg/injection, schedule: Q01DX009 (ip), vehicle: distilled water + Tween-80) was 121 % of control and 110 % of control. For the same compound, the T/C (endpoint: median survival time, dose: 400.0 mg/kg/injection, schedule: Q01DX009 (ip), vehicle: distilled water + Tween-80) was 105 % of control.
For `C=C1CC(C)(Cn2c(N)nc3nc[nH]c3c2=O)OC1=O` (configuration not stated), the T/C (endpoint: median survival time, dose: 5.38 mg/kg/injection, schedule: Q01DX005 (ip), vehicle: water) was 97 % of control, the T/C (endpoint: median survival time, dose: 10.75 mg/kg/injection, schedule: Q01DX005 (ip), vehicle: water) was 97 % of control and the T/C (endpoint: median survival time, dose: 21.5 mg/kg/injection, schedule: Q01DX005 (ip), vehicle: water) was 97 % of control. The T/C (endpoint: median survival time, dose: 43.0 mg/kg/injection, schedule: Q01DX005 (ip), vehicle: water) was 112 % of control.
With `CC(=O)c1ccc[n+](Cc2c(Cl)cccc2Cl)c1` the T/C (endpoint: mean survival time, dose: 12.5 mg/kg/injection, schedule: Q04DX003 (ip), vehicle: saline) was 107 % of control, the T/C (endpoint: mean survival time, dose: 25.0 mg/kg/injection, schedule: Q04DX003 (ip), vehicle: saline) was 98 % of control and the T/C (endpoint: mean survival time, dose: 50.0 mg/kg/injection, schedule: Q04DX003 (ip), vehicle: saline) was 96 % of control.
With `COc1cccc(C(=O)NC[n+]2cccc(O)c2)c1` the T/C (endpoint: mean survival time, dose: 100.0 mg/kg/injection, schedule: Q01DX001 (ip), vehicle: saline with Tween-80) was 100 % of control, the T/C (endpoint: mean survival time, dose: 200.0 mg/kg/injection, schedule: Q01DX001 (ip), vehicle: saline with Tween-80) was 92 % of control and the T/C (endpoint: mean survival time, dose: 400.0 mg/kg/injection, schedule: Q01DX001 (ip), vehicle: saline with Tween-80) was 88 % of control.
For `CCCCCC/C(C)=C(\C)c1cc(OC)cc(OC)c1`, the T/C [3] was 96 % of control and the T/C [5] was 100 % of control.
For `COCCOC`, the T/C (endpoint: mean survival time, dose: 200.0 mg/kg/injection, schedule: Q01DX Z (ip), vehicle: carboxymethylcellulose (CMC)) was 103 % of control, the T/C (endpoint: mean survival time, dose: 300.0 mg/kg/injection, schedule: Q01DX Z (ip), vehicle: carboxymethylcellulose (CMC)) was 110 % of control and the T/C (endpoint: mean survival time, dose: 450.0 mg/kg/injection, schedule: Q01DX Z (ip), vehicle: carboxymethylcellulose (CMC)) was 114 % of control. The T/C (endpoint: mean survival time, dose: 675.0 mg/kg/injection, schedule: Q01DX Z (ip), vehicle: carboxymethylcellulose (CMC)) was 102 % of control.
